System: not listed separately
Assay: DRUGMATRIX: Potassium Channel [KATP] radioligand binding (ligand: [3H] Glyburide)
Format: cell membranes, Membrane
Conditions: hit-t15; Not Active = under 50% inhibition at 10 µM

SMILES | IC50 | Ki
C[C@]12CC[C@@H]3c4ccc(O)cc4CC[C@H]3[C@@H]1C[C@@H](O)[C@@H]2O [ESTRIOL] | Not Active | Not Active
C#C[C@]1(O)CC[C@H]2[C@@H]3CCC4=CC(=O)CC[C@]4(C)[C@H]3CC[C@@]21C [ETHISTERONE] | Not Active | Not Active
CC(O)(P(=O)(O)O)P(=O)(O)O [ETIDRONIC ACID] | Not Active | Not Active
CC(C)(C(=O)O)c1ccc(C(O)CCCN2CCC(C(O)(c3ccccc3)c3ccccc3)CC2)cc1 (centres undefined) [FEXOFENADINE] | Not Active | Not Active
CN1CCN(c2c(F)cc3c(=O)c(C(=O)O)cn(CCF)c3c2F)CC1 [FLEROXACIN] | Not Active | Not Active
O=c1[nH]c(=O)n([C@H]2C[C@H](O)[C@@H](CO)O2)cc1F [FLOXURIDINE] | Not Active | Not Active

System: not listed separately
Assay: DRUGMATRIX: Imidazoline I2, Central radioligand binding (ligand: [3H] Idazoxan)
Format: cell membranes, Rattus norvegicus, Wistar, Cerebral cortex, Membrane
Conditions: Not Active = under 50% inhibition at 10 µM

SMILES | IC50 | Ki
C[C@]12CC[C@@H]3c4ccc(O)cc4CC[C@H]3[C@@H]1C[C@@H](O)[C@@H]2O [ESTRIOL] | Not Active | Not Active
C#C[C@]1(O)CC[C@H]2[C@@H]3CCC4=CC(=O)CC[C@]4(C)[C@H]3CC[C@@]21C [ETHISTERONE] | Not Active | Not Active
CC(O)(P(=O)(O)O)P(=O)(O)O [ETIDRONIC ACID] | Not Active | Not Active
CC(C)(C(=O)O)c1ccc(C(O)CCCN2CCC(C(O)(c3ccccc3)c3ccccc3)CC2)cc1 (centres undefined) [FEXOFENADINE] | Not Active | Not Active
CN1CCN(c2c(F)cc3c(=O)c(C(=O)O)cn(CCF)c3c2F)CC1 [FLEROXACIN] | Not Active | Not Active
O=c1[nH]c(=O)n([C@H]2C[C@H](O)[C@@H](CO)O2)cc1F [FLOXURIDINE] | Not Active | Not Active

Target: T1, Calcitonin receptor (Homo sapiens, UniProt P30988); further: in other assays of this panel Not Active means under 50% inhibition at 10 µM
T1 sequence (P30988 whole entry): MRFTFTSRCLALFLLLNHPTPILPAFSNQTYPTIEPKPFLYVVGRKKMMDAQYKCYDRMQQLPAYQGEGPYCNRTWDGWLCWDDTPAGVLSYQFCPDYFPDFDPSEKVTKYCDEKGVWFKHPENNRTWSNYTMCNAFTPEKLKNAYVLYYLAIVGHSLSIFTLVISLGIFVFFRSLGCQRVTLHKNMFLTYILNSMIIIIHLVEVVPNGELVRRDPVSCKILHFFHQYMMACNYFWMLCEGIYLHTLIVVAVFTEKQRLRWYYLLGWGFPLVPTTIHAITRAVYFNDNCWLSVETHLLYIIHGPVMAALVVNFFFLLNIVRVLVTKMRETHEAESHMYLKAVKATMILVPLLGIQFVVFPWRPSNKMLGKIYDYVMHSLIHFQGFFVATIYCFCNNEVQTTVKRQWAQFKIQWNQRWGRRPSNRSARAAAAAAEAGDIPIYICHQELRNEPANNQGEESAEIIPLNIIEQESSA
Assay: not given
Format: cell membranes, Membrane
Conditions: t47d

SMILES | IC50
C[C@]12CC[C@@H]3c4ccc(O)cc4CC[C@H]3[C@@H]1C[C@@H](O)[C@@H]2O [ESTRIOL] | Not Active
C#C[C@]1(O)CC[C@H]2[C@@H]3CCC4=CC(=O)CC[C@]4(C)[C@H]3CC[C@@]21C [ETHISTERONE] | Not Active
CC(O)(P(=O)(O)O)P(=O)(O)O [ETIDRONIC ACID] | Not Active
CC(C)(C(=O)O)c1ccc(C(O)CCCN2CCC(C(O)(c3ccccc3)c3ccccc3)CC2)cc1 (centres undefined) [FEXOFENADINE] | Not Active
CN1CCN(c2c(F)cc3c(=O)c(C(=O)O)cn(CCF)c3c2F)CC1 [FLEROXACIN] | Not Active
O=c1[nH]c(=O)n([C@H]2C[C@H](O)[C@@H](CO)O2)cc1F [FLOXURIDINE] | Not Active

Target: Sodium-dependent noradrenaline transporter (Homo sapiens, UniProt P23975)
Assay: DRUGMATRIX: Norepinephrine Transporter radioligand binding (ligand: [125I] RTI-55)
Format: cell membranes, MDCK, Membrane
Conditions: mdck; Not Active = under 50% inhibition at 10 µM

Sequence of Sodium-dependent noradrenaline transporter (P23975 whole entry): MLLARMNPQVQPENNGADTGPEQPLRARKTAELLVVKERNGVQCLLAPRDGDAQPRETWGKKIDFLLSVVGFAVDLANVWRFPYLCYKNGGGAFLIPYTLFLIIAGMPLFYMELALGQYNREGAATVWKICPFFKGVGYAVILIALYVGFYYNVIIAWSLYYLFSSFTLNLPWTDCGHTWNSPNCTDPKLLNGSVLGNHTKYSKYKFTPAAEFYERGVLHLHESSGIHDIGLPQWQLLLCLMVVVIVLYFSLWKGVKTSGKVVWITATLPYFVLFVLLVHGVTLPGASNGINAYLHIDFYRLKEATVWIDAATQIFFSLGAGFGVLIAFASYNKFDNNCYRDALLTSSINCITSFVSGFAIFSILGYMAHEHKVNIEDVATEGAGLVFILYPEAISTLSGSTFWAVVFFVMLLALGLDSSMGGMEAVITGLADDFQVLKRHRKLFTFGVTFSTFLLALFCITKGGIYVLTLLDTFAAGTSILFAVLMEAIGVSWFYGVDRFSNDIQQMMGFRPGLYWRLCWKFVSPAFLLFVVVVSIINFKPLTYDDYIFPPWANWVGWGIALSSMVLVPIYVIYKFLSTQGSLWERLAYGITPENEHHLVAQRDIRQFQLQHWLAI

SMILES | IC50
C[C@]12CC[C@@H]3c4ccc(O)cc4CC[C@H]3[C@@H]1C[C@@H](O)[C@@H]2O [ESTRIOL] | Not Active
C#C[C@]1(O)CC[C@H]2[C@@H]3CCC4=CC(=O)CC[C@]4(C)[C@H]3CC[C@@]21C [ETHISTERONE] | Not Active
CC(O)(P(=O)(O)O)P(=O)(O)O [ETIDRONIC ACID] | Not Active
CC(C)(C(=O)O)c1ccc(C(O)CCCN2CCC(C(O)(c3ccccc3)c3ccccc3)CC2)cc1 (centres undefined) [FEXOFENADINE] | Not Active
CN1CCN(c2c(F)cc3c(=O)c(C(=O)O)cn(CCF)c3c2F)CC1 [FLEROXACIN] | Not Active
O=c1[nH]c(=O)n([C@H]2C[C@H](O)[C@@H](CO)O2)cc1F [FLOXURIDINE] | Not Active

System: not listed separately
Assay: DRUGMATRIX: Platelet-Derived Growth Factor (PDGF) radioligand binding (ligand: [125I] PDGF)
Format: cell-based
Conditions: nih3t3; Not Active = under 50% inhibition at 10 µM

SMILES | IC50 | Ki
C[C@]12CC[C@@H]3c4ccc(O)cc4CC[C@H]3[C@@H]1C[C@@H](O)[C@@H]2O [ESTRIOL] | Not Active | Not Active
C#C[C@]1(O)CC[C@H]2[C@@H]3CCC4=CC(=O)CC[C@]4(C)[C@H]3CC[C@@]21C [ETHISTERONE] | Not Active | Not Active
CC(O)(P(=O)(O)O)P(=O)(O)O [ETIDRONIC ACID] | Not Active | Not Active
CC(C)(C(=O)O)c1ccc(C(O)CCCN2CCC(C(O)(c3ccccc3)c3ccccc3)CC2)cc1 (centres undefined) [FEXOFENADINE] | Not Active | Not Active
CN1CCN(c2c(F)cc3c(=O)c(C(=O)O)cn(CCF)c3c2F)CC1 [FLEROXACIN] | Not Active | Not Active
O=c1[nH]c(=O)n([C@H]2C[C@H](O)[C@@H](CO)O2)cc1F [FLOXURIDINE] | Not Active | Not Active

Target: T2, Interstitial collagenase (Homo sapiens, UniProt P03956);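 further: MMP-1 enzyme inhibition assay using a peptide substrate; in other assays of this panel Not Active means under 50% inhibition at 10 µM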
T2 sequence (P03956 whole entry): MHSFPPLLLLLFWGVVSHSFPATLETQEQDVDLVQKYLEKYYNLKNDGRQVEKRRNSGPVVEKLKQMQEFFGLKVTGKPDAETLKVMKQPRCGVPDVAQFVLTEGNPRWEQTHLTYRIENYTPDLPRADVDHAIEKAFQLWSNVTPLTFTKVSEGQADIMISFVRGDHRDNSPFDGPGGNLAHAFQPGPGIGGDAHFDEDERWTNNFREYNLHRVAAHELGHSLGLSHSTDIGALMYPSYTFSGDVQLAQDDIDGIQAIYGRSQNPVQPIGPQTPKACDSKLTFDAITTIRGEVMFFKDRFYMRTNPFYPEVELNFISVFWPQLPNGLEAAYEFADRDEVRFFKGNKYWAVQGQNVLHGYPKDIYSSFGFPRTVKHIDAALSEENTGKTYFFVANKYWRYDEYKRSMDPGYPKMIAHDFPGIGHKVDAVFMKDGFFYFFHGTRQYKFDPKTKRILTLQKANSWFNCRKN
Assay: biochemical
Format: tissue-based, Rheumatoid synovial fibroblasts
Conditions: not given

SMILES | IC50
C[C@]12CC[C@@H]3c4ccc(O)cc4CC[C@H]3[C@@H]1C[C@@H](O)[C@@H]2O [ESTRIOL] | Not Active
C#C[C@]1(O)CC[C@H]2[C@@H]3CCC4=CC(=O)CC[C@]4(C)[C@H]3CC[C@@]21C [ETHISTERONE] | Not Active
CC(O)(P(=O)(O)O)P(=O)(O)O [ETIDRONIC ACID] | Not Active
CC(C)(C(=O)O)c1ccc(C(O)CCCN2CCC(C(O)(c3ccccc3)c3ccccc3)CC2)cc1 (centres undefined) [FEXOFENADINE] | Not Active
CN1CCN(c2c(F)cc3c(=O)c(C(=O)O)cn(CCF)c3c2F)CC1 [FLEROXACIN] | Not Active
O=c1[nH]c(=O)n([C@H]2C[C@H](O)[C@@H](CO)O2)cc1F [FLOXURIDINE] | Not Active

From ChEMBL document CHEMBL1909046, “DrugMatrix in vitro pharmacology data”
